# What was measured:
# Assay type in all cases: cell-based
# [1] = system: herpes simplex type I (VPG-I/Leningrad/248/88); assay: Activity on herpes simplex virus: cytopathic action of the virus on Vero cells; settings: 36 hours; for number of cells in 100 fields (unchanged cells): cell control 12000
# Method: (§1) The antiviral activity was studied relative to the virus herpes simplex type I (VPG-I/Leningrad/248/88) by a standard method. The virus was grown on a reinoculated Vero cell culture obtained from the cell culture bank of the Institute of Cytology of the Russian Academy of Sciences.
# To cells grown on medium RPMI-1640 with 10% calf serum and placed in the wells of a 96-well plate, the virus was added to give a final concentration of 10 particles/ml and the claimed compounds dissolved in DMSO were added to give a final concentrations of 100, 10, and 1 mg/l. We used 5 individual wells for every concentration tested. The plate was incubated for 60 min at 38° C. in a CO2 incubator. After incubation the virus was removed and new medium was added that contained the claimed compounds in the test concentrations.
# The results were evaluated according to the existence of a cytopathic action of the virus on the cells after 36 hours of incubation at 38° C. in the CO2 incubator.
# The following controls were used in the experiment:
# 3. Control of antiviral activity of an antiviral preparation—acylcovir.
# To access the cytopathic effect of the virus, we counted the number of unchanged cells in 100 fields formed by a specialized grid on the eyepiece of the inversion microscope.
# [2] = system: primary culture of human lymphocytes; assay: Interferon-inducing activity in primary culture of human lymphocytes (immunoenzyme IFN determination); parameters: unit of the concentration uncertain; settings: 24 hours of incubation
# Method: Interferon synthesis induction by the claimed preparations was conducted on a primary culture of human lymphocytes (the cells in the human body are the main producers of interferon). To obtain a culture of the lymphocytes we used fresh blood (12 hours after collection) from healthy […] (not from the second group).
# The lymphocyte concentration was determined after staining with methyl blue and the number of cells in the Goryaev chamber was calculated. […] The final concentration of the lymphocytes in the induction mixture was 3·10^6 cells/ml. The following controls were processed in parallel with the test samples:
# The control and the experimental samples were incubated for 24 hours at 37° C. Following incubation the samples were centrifuged at 2000 g to settle out the cellular elements and the INF-containing supernatant was taken from the samples and analyzed for INF content. The cell residue was resuspended in the same volume of nutrient medium, stained with a vital dye—trypan blue—and the number of cells in the Goryaev chamber was calculated (as described above) to determine the cytotoxic activity of the preparations.
# For the quantitative determination of INF in the control and experimental samples we used the ProCon IF2 Plus immunoenzyme test system sold by TOO Proteinovyi Kontur. To determine the quantity of interferon s in the sample we used a solid-phase immunoenzyme method utilizing horseradish peroxidase as the enzyme indicator. The activity of the bound peroxidase was measured using an automated photometer at a wavelength of 450 nm for the microplanchets with a microprocessor. […] On the basis of the results obtained we plotted a calibration curve that allowed us to obtain data expressed in International Units (IU) from the microprocessor of the automated photometer. The results of the analysis are expressed in IU of activity of INF per ml in the given induction system containing 3·10^6 lymphocytes/ml. Every experimental and control point was studied in 4 parallel runs.
# The results obtained were analyzed statistically using the t-test and the confidence interval at p=0.05 was calculated. Analysis of the convergence of the results of the parallel tests were performed.
# [3] = system: C. trachomatis D323; assay: Activity on Chlamydia trachomatis in McCoy and L929 cell cultures; settings: 48 hours; for number of cells in 100 fields (unchanged cells): cell control 8000, infected cell control 6400
# Method: The antimicrobial activity of the claimed compounds was studied on C. trachomatis […]-a standard strain from the collection of the Department of Microbiology of the Pavlov St.-Petersburg State University. This strain was isolated from a patient with […] urethritis. […] In the work reported here we used McCoy and L929 cell cultures obtained from the Institute of Cytology of the Russian Academy of Sciences. The cells were grown in flasks of neutral glass in RPMI-1640 medium with an addition of 10% fetal calf serum. The experiment was placed in glass (toxicity-free) flat-bottomed flasks and covered with glass. The cells were introduced into the medium in a final concentration of 1·10 cells/ml. […] The sample was centrifuged at 2400 g for 60 min at room temperature and incubated at 37° C. for 2 hours. […] A parallel series of samples was run using medium without the cycloheximide in order to avoid its influence on the test substances. The samples were incubated for 48 hours in a CO2 incubator. […] The results were evaluated from the detection of chlamydia cytoplasmatic inclusion by an immunoenzyme method (MicroTrac Chlamydia trachomatis Direct Specimen Test) and from chlamydia antigens using CylaMonoScreen (Russian-British Joint Venture, 66 Regent's Park Road, London NW 1 7SX).
# [4] = system: Vero cell culture; assay: Control of compounds (toxicity of compounds) in the herpes experiment; settings: Vero cells
# Method: as §1
# To cells grown on medium RPMI-1640 with 10% calf serum and placed in the wells of a 96-well plate, the virus was added to give a final concentration of 10 particles/ml and […] We used 5 individual wells for every concentration tested. The plate was incubated for 60 min at 38° C. in a CO2 incubator. After incubation the virus was removed and new medium was added that contained the claimed compounds in the test concentrations.
# 4. Control of compounds (toxicity of compounds).
# [5] = system: McCoy and L929 cell cultures; assay: Control of the test compounds on toxicity relative to cell cultures in the chlamydia experiment
# Method: In the work reported here we used McCoy and L929 cell cultures obtained from the Institute of Cytology of the Russian Academy of Sciences. The cells were grown in flasks of neutral glass in RPMI-1640 medium with an addition of 10% fetal calf serum. The experiment was placed in glass (toxicity-free) flat-bottomed flasks and covered with glass. The cells were introduced into the medium in a final concentration of 1·10 cells/ml. After a monolayer was obtained, standard infectious doses of chlamydia that had been maintained in a frozen state at −70° C. were added to test tubes. […] The sample was centrifuged at 2400 g for 60 min at room temperature and incubated at 37° C. for 2 hours. […] A parallel series of samples was run using medium without the cycloheximide in order to avoid its influence on the test substances. The samples were incubated for 48 hours in a CO2 incubator.
SMILES,percent protection of the cells against the virus compared to the cell culture control ([1]; 10 mg/l) [%],number of cells in 100 fields (unchanged cells) ([1]; 10 mg/l),Interferon-inducing activity of the drug; content of INF in induction mixture ([2]; 1 (unit uncertain)) [IU/3 · 10^4 lymp/ml],Interferon-inducing activity of the drug; content of INF in induction mixture ([2]; 10 (unit uncertain)) [IU/3 · 10^4 lymp/ml],Interferon-inducing activity of the drug; content of INF in induction mixture ([2]; 100 (unit uncertain)) [IU/3 · 10^4 lymp/ml],percent protection of the cells against infection ([3]; 30 mg/l) [%],number of cells in 100 fields (unchanged cells) ([3]; 30 mg/l),cytotoxicity of compound ([4]; 100 mg/l),cytotoxicity of compound ([5]; 100 mg/l),percent protection of the cells against the virus compared to the cell culture control ([1]; 100 mg/l) [%],number of cells in 100 fields (unchanged cells) ([1]; 100 mg/l),percent protection of the cells against infection ([3]; 100 mg/l) [%],number of cells in 100 fields (unchanged cells) ([3]; 100 mg/l),cytotoxicity of compound ([4]; 50 mg/l),cytotoxicity of compound ([5]; 30 mg/l)
"Nc1nc2c(ncn2COCCO)c(=O)[nH]1 [Acyclovir, reference compound]",80,9600,–,–,–,–,–,–,–,–,–,–,–,–,–
Oc1nc(O)c2c(n1)Oc1nc(O)nc(O)c1C2 [IV],–,–,3.8 ± 1.5,29.9 ± 2.0,74.0 ± 1.8,40,7040,Cytotoxic,cytotoxic,–,–,–,–,–,–
Oc1nc(O)c2c(n1)Oc1nc(O)nc(O)c1C2c1ccc(Cl)cc1 [VI],–,–,6.5 ± 1.4,36.9 ± 1.2,92.2 ± 2.1,–,–,–,–,50,6000,15,6560,–,–
Oc1nc(O)c2c(n1)Oc1nc(O)nc(O)c1C2c1ccc(I)cc1 [III],–,–,56.5 ± 1.0,112.6 ± 2.0,243.2 ± 1.0,–,–,–,–,40,4800,–,–,–,–
"Clc1nc(Cl)c2c(n1)Oc1nc(Cl)nc(Cl)c1C2c1ccccc1 [II, 5-Phenyl-2,4,6,8-tetrachloro-5H-pyrano[2,3-d:6,5-d′]dipyrimidine]",–,–,2.0 ± 0.4,16.0 ± 0.8,40.0 ± 1.4,–,–,Cytotoxic,cytotoxic,–,–,–,–,Cytotoxic,cytotoxic
"COc1nc(O)nc2c1C(c1ccc([N+](=O)[O-])cc1)c1c(OC)nc(O)nc1O2 [V, 2,8-Dihydroxy-4,6-dimethoxy-5-(4-nitrophenyl)-5H-pyrano[2,3-d:6,5-d′]dipyrimidine]",–,–,10.5 ± 2.5,50.6 ± 1.8,108.9 ± 2.0,–,–,–,cytotoxic,50,6000,–,–,–,–
"O=[N+]([O-])c1ccc(C2c3c(O)nc(S)nc3Oc3nc(S)nc(O)c32)cc1 [IX, 4-6-Dihydroxy-2,8-dimercapto-5-(p-nitrophenyl)-5H-pyrano[2,3-d:6,5-d′]dipyrimidine]",–,–,6.8 ± 2.0,28.0 ± 2.5,64.0 ± 1.8,–,–,–,–,40,4800,60,7360,–,–
Oc1nc(O)c2c(n1)Oc1nc(O)nc(O)c1C2c1ccc(Br)cc1 [VII],–,–,5.6 ± 1.6,10.6 ± 1.8,22.2 ± 1.4,–,–,–,cytotoxic,30,3600,–,–,–,–
